In US7271278B2, “Application of chromium-amino acid complexes in the treatment of diabetes and other diseases” (The University of Wyoming, priority 2005, dated 2007):

How the values were obtained:
pUC19 DNA = experiment: Ascorbate-stimulated cleavage of pUC19 DNA; conditions: 1.2 μM, ascorbic acid, pUC19 DNA 38 μM
Description: DNA cleavage-stimulated by chromium compounds was assessed as described previously (Speetjens et al. (1999) Chem. Res. Toxicol., 12:483-487). All solutions were prepared using Chelex-100 treated water to remove any traces of metal ions. […] Reactions were allowed to proceed 60 minutes at room temperature followed by quenching with 2 μl of nucleic acid sample loading buffer. The mixtures were loaded directly onto a 1% agarose gel pre-stained by ethidium bromide and electrophoresed at 60 V. The gels were photographed on a UV transilluminator.

ob/ob(+/+) mice [1] = experiment: Insulin-challenge test in ob/ob(+/+) and lean mice; type: in vivo, mouse; conditions: vs vehicle-treated group
Text: All animal treatment procedures described in this study were approved by the Animal Care and Use Committee at University of Wyoming (Laramie, Wyo.). Homozygous B6.Vlep/J male mice purchased from the Jackson Laboratory (Bar Harbor, Me.) at age 5 weeks were divided randomly into two weight-matched groups, marked as ob/ob(+/+) control and ob/ob(+/+) treatment (n=12). Number and age-matched normal C57 mice were used as lean control. All animals were maintained on conventional laboratory diet under well-controlled conditions of temperature (22±2° C.), humidity (55±5%) and 12 hours/12 hours light-dark cycle and had ad libitum access to water and standard rodent chow. Cr(D-Phe)3 was provided in the drinking water and, on the basis of water intake, was administered to provide an intake of about 150 μg/kg/day corresponding to about 10-15 μg elemental Cr/kg/day) for ob/ob(+/+) and lean treatment groups. […] The livers of these mice were frozen in liquid nitrogen immediately and stored at −80° C. until use. […] Weights of body and other organs were measured with a standard laboratory scale.
At the end of the treatment schedule, mice were given intraperitoneal injections of insulin (1 U/kg body weight). Blood glucose levels were determined by the tail-clip method at different time points as described hereinabove.

insulin receptor beta = experiment: Insulin-stimulated IRβ tyrosine phosphorylation, Western blot of 3T3-adipocyte lysates; type: cell-based, mouse
Description: (§1) The 3T3-L1-pre-adipocytes were obtained from the American Type Culture Collection and were propagated at 37° C. in DMEM with 10% newborn calf serum plus 50 U/ml penicillin and 50 μg/ml streptomycin in an incubator under a humidified atmosphere of 5% CO2/95% air. Induction of differentiation was done one day post-confluence. Cells were maintained in differentiation medium of the following composition: DMEM, 10% FBS, […] dexamethasone, 0.5 mM 1-isobutyl-3-methylxanthine (IBMX) and ITS for three days. At day 3, the dexamethasone and IBMX were removed with ITS remaining on the cells for an additional two days. Differentiation was allowed to continue in DMEM supplemented with 10% FBS, ITS and the adipocytes were used between day 9 and 14 post-induction. Prior to the cellular assays, cells were serum starved by overnight incubation in DMEM (containing 0.2% serum).
Cells were lysed in RIPA buffer (150 mM NaCl, 0.25% sodium desoxycholate, 1% NP-40, 1 mM EDTA and 50 mM Tris, pH 7.2) containing 2 mM sodium vanadate, 1 μM PMSF, 1 μM sodium fluoride, 1 μg/ml aprotinin, 1 μg/ml leupeptin, and 1 μM pepstatin and sonicated to reduce the sample viscosity. The lysate was centrifuged at 15000×g for 15 minutes at 4° C. and the protein concentration in the supernatant was determined by the bicinchoninic acid method. Equivalent amounts of proteins were boiled in Laemmli sample buffer. Proteins 10-20 μg were separated on 7.5-10% polyacrylamide gel, and electrophoretically transferred to a nitrocellulose membrane. The membranes were incubated for 1 hour at room temperature in blocking buffer (5% w/v non-fat dry milk in tris buffered saline containing 0.1% Tween 20). Membranes were incubated in appropriate phospho-specific primary antibody for insulin receptor beta or Akt at 1:2500 dilutions in the blocking buffer followed by incubation with horseradish peroxidase-coupled secondary antibodies with appropriate specificity. Immunoreactive bands were visualized using enhanced chemiluminescence reagents (Cell Signaling Technology, Inc, Beverly, Mass.). […]

Akt = experiment: Hepatic Akt and insulin receptor phosphorylation, Western blot of liver homogenates; type: in vivo, mouse; conditions: obese mice
Text: All animal treatment procedures described in this study were approved by the Animal Care and Use Committee at University of Wyoming (Laramie, Wyo.). Homozygous B6.Vlep/J male mice purchased from the Jackson Laboratory (Bar Harbor, Me.) at age 5 weeks were divided randomly into two weight-matched groups, marked as ob/ob(+/+) control and ob/ob(+/+) treatment (n=12). Number and age-matched normal C57 mice were used as lean control. All animals were maintained on conventional laboratory diet under well-controlled conditions of temperature (22±2° C.), humidity (55±5%) and 12 hours/12 hours light-dark cycle and had ad libitum access to water and standard rodent chow. Cr(D-Phe)3 was provided in the drinking water and, on the basis of water intake, was administered to provide an intake of about 150 μg/kg/day corresponding to about 10-15 μg elemental Cr/kg/day) for ob/ob(+/+) and lean treatment groups. […] The livers of these mice were frozen in liquid nitrogen immediately and stored at −80° C. until use. Blood was collected from the heart, and the serum was extracted by centrifuging the blood at 1000 g at 4° C. and stored at −80° C. Weights of body and other organs were measured with a standard laboratory scale.
Liver tissues lysates were subjected to Western blot analysis as described hereinabove using phospho specific antibodies against Akt. Blots were then stripped and re-probed with antibodies directed against antibodies directed at the total protein.

[2] = In vitro lipid-peroxidation of rat brain homogenate stimulated by hydrogen peroxide and ascorbate; type: biochemical; conditions: rat-brain homogenate 10% w/v, hydrogen peroxide 1 mM, ascorbate 1 mM, 30 min; concentration-dependent
Description: The end product of lipid-peroxidation, namely malondialdehyde (MDA), was estimated in the liver tissue homogenates by the colorimetric kit (Bioxytech LPO-586, Portland, Oreg.) using 1,1,3,3-tetra-ethoxypropane as a standard according to the manufacturer's specifications. This assay is based on the reaction of a chromogenic reagent N-methyl-2-phenylindole with MDA at 45° C. which yields a stable chromophore with absorbance maxima at 586 nm. Ability of Cr(D-Phe)3 to inhibit in vitro lipid-peroxidation was assessed in rat-brain homogenates (10% w/v) by incubating Cr(D-Phe)3 in the presence of hydrogen peroxide (1 mM) and ascorbic acid (1 mM) for 30 min at 37° C. followed by measuring MDA as described previously (Sreejayan et al. (1994) J. Pharm. Pharmacol., 46:1013-1016).

3T3-adipocytes = experiment: 2-deoxy-D-[3H] glucose uptake in 3T3-L1 adipocytes; type: cell-based, mouse
Description: as §1
Glucose uptake activity was analyzed by measuring the uptake of 2-deoxy-D-[^3H] glucose as described previously (Sakoda et al. (1999) Diabetes, 48:1365-1371). Briefly, confluent 3T3-L1 adipocytes grown in 6-well plates were washed twice with serum-free DMEM and incubated with 2 ml of the same medium at 37° C. for 2 hours. The cells were washed 3 times with Krebs-Ringer-HEPES (KRH) buffer and incubated with 2 ml KRH buffer at 37° C. for 30 minutes. Insulin (6 nM) and/or Cr(pa)3 (0-25 μM) were then added to adipocytes accompanying the procedure of differentiation. Glucose uptake was initiated by the addition of 0.1 ml KRH buffer and 2-deoxy-D-[^3H] glucose (0.2 μCi/ml) and 5 mM glucose as final concentrations. Glucose uptake was terminated by washing the cells three times with cold PBS. The cells were lysed overnight with 1 ml 0.5M NaOH and 0.1% SDS (w/v). The radioactivity retained by the cell lysates was determined by a scintillation counter (Beckmann LC 6000IC) and normalized to protein amount measured with a Micro BCA Protein Assay Kit (Pierce Chemical, Rockford, Ill.).

ob/ob(+/+) mice [3] = experiment: Lipid-peroxidation (malondialdehyde) and protein carbonyl in liver homogenate of treated mice; type: in vivo, mouse; conditions: obese mice, 150 μg/kg/day 6 weeks, vs untreated obese
Text: All animal treatment procedures described in this study were approved by the Animal Care and Use Committee at University of Wyoming (Laramie, Wyo.). Homozygous B6.Vlep/J male mice purchased from the Jackson Laboratory (Bar Harbor, Me.) at age 5 weeks were divided randomly into two weight-matched groups, marked as ob/ob(+/+) control and ob/ob(+/+) treatment (n=12). Number and age-matched normal C57 mice were used as lean control. All animals were maintained on conventional laboratory diet under well-controlled conditions of temperature (22±2° C.), humidity (55±5%) and 12 hours/12 hours light-dark cycle and had ad libitum access to water and standard rodent chow. […] Weights of body and other organs were measured with a standard laboratory scale.
The end product of lipid-peroxidation, namely malondialdehyde (MDA), was estimated in the liver tissue homogenates by the colorimetric kit (Bioxytech LPO-586, Portland, Oreg.) using 1,1,3,3-tetra-ethoxypropane as a standard according to the manufacturer's specifications. This assay is based on the reaction of a chromogenic reagent N-methyl-2-phenylindole with MDA at 45° C. which yields a stable chromophore with absorbance maxima at 586 nm. […]

Structure (SMILES): N[C@H](Cc1ccccc1)C(=O)O.[Cr+3] [Cr(pa)3, chromium (III) D-phenylalanine]
- DNA strand breaks (supercoiled to circular nicked pUC19) (pUC19 DNA): failed to induce any strand breaks
- blood glucose level after insulin-challenge, lean mice (ob/ob(+/+) mice [1]): failed to further lower the blood glucose level
- protein levels of insulin receptor (insulin receptor beta; 3T3-adipocytes): does not increase
- IRβ phosphorylation induced by submaximal insulin (insulin receptor beta; insulin 1 nM): not altered
- insulin-stimulated IRβ tyrosine phosphorylation (insulin receptor beta; pretreatment for various time or at different concentrations, insulin 10 nM 10 minutes): not altered
- levels of phospho-Akt in liver homogenate (Akt; oral 150 μg/kg/day 6 weeks, basal): failed to significantly enhance
- levels of total Akt protein in liver homogenate (Akt; oral treatment): Neither did the treatment alter
- phosphorylation of insulin-receptors in liver (Akt; same blots reprobed for phosphorylated insulin receptor beta): no changes
- in vitro lipid-peroxidation (malondialdehyde equivalents) [2]: inhibited
- insulin-stimulated glucose uptake (3T3-adipocytes; Cr(pa)3 5 and 25 μM, insulin 6 nM, vs insulin-stimulated untreated cells): significantly augmented
- basal glucose uptake (3T3-adipocytes; absence of insulin): did not have any effect
- malondialdehyde (lipid-peroxidation) in liver homogenate (ob/ob(+/+) mice [3]): significantly lower
- protein carbonyl formation in liver homogenate (ob/ob(+/+) mice [3]): significantly lower
